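Tested at 5 concentrations; 48 h exposure; 96-well plates; endpoints linearly interpolated, else capped at highest concentration. GI50 is the concentration that inhibits growth by half.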 Active and inactive are the calls of the source. Rule as the data show it: active = GI50 up to about 1.1 µM and inactive = higher.
Assays:
Test in all cases: inhibition of tumour cell growth, NCI panel, 48 h
[1] = test system: HT-29
[2] = test system: RXF 393
[3] = test system: U-251
[4] = test system: HOP-92
[5] = test system: OVCAR-4
[6] = test system: UACC-62
[7] = test system: NCI-H226
[8] = test system: CAKI-1
[9] = test system: SF-539
[10] = test system: IGROV-1
[11] = test system: OVCAR-5
[12] = test system: SK-MEL-2
[13] = test system: SNB-75
[14] = test system: 786-0
[15] = test system: MOLT-4
[16] = test system: SK-MEL-5
[17] = test system: EKVX
[18] = test system: LOX IMVI
[19] = test system: CCRF-CEM

Measured: GI50

Cc1ccc(S(=O)(=O)c2ccc(C)cc2[N+](=O)[O-])cc1
inactive: [1] > 100 µM | [2] 82 µM | [3] > 100 µM | [4] > 100 µM | [5] > 100 µM | [6] 92.3 µM | [7] > 100 µM | [8] 95.9 µM | [9] > 100 µM | [10] > 100 µM | [11] > 100 µM | [12] > 100 µM | [13] > 100 µM | [14] > 100 µM | [15] 45.1 µM | [16] 24.4 µM | [17] > 100 µM | [18] 82.8 µM | [19] > 100 µM

O=C(/C=C/c1ccc(Cl)c(Cl)c1)c1ccc2ccccc2c1
inactive: [1] > 100 µM | [2] > 100 µM | [3] > 100 µM | [4] > 100 µM | [5] > 100 µM | [6] > 100 µM | [7] 70.5 µM | [8] > 100 µM | [9] > 100 µM | [10] > 100 µM | [11] > 100 µM | [12] > 100 µM | [13] 52 µM | [14] > 100 µM | [15] 48.9 µM | [16] > 100 µM | [17] > 100 µM | [18] > 100 µM | [19] > 100 µM

CC[C@]1(O)C(=O)OCc2c1cc1n(c2=O)Cc2cc3c(N)cccc3nc2-1
inactive: [1] > 100 µM | [2] > 100 µM | [3] > 100 µM | [4] > 100 µM | [5] > 100 µM | [6] > 100 µM | [7] > 100 µM | [8] > 100 µM | [9] > 100 µM | [10] > 100 µM | [11] > 100 µM | [12] > 100 µM | [13] 20.5 µM | [14] > 100 µM | [15] > 100 µM | [16] > 100 µM | [17] > 100 µM | [18] > 100 µM | [19] > 100 µM

CC(C)N1CC2CC(CN(C(=O)c3ccc(Cl)cc3)C2)C1
inactive: [1] > 100 µM | [2] > 100 µM | [3] > 100 µM | [4] > 100 µM | [5] > 100 µM | [6] > 100 µM | [7] > 100 µM | [8] > 100 µM | [9] > 100 µM | [10] > 100 µM | [11] > 100 µM | [12] > 100 µM | [13] > 100 µM | [14] > 100 µM | [15] > 100 µM | [16] > 100 µM | [17] > 100 µM | [18] > 100 µM | [19] > 100 µM

CCOC(=O)C(C(O)c1ccc([N+](=O)[O-])cc1)P(=O)(OCC)OCC (configuration not stated)
inactive: [1] > 100 µM | [2] 36.5 µM | [3] > 100 µM | [4] 34 µM | [5] > 100 µM | [6] 52.1 µM | [7] > 100 µM | [8] > 100 µM | [9] > 100 µM | [10] > 100 µM | [11] > 100 µM | [12] > 100 µM | [13] 35.4 µM | [14] > 100 µM | [15] 57.9 µM | [16] 99.8 µM | [17] > 100 µM | [18] 72.9 µM | [19] 35.5 µM

COc1ccc2c(c1)O[C@@H]1c3ccc(OC)cc3OC[C@H]21
inactive: [1] > 10 µM | [2] 22.4 µM | [3] 24.2 µM | [4] 17.1 µM | [5] 29.2 µM | [6] 37.8 µM | [7] 21.5 µM | [8] 29.6 µM | [9] 38.1 µM | [10] 37 µM | [11] 45.3 µM | [12] 23 µM | [13] 16 µM | [14] 25.4 µM | [15] 16.6 µM | [16] 17.4 µM | [18] 17.9 µM | [19] 27.2 µM

O=c1oc2ccccc2[n+]([O-])c1-c1ccccc1
inactive: [1] > 100 µM | [2] > 100 µM | [3] > 100 µM | [4] > 100 µM | [5] > 100 µM | [6] > 100 µM | [7] > 100 µM | [8] > 100 µM | [9] > 100 µM | [10] > 100 µM | [11] > 100 µM | [12] > 100 µM | [13] 49.7 µM | [14] > 100 µM | [15] > 100 µM | [16] > 100 µM | [17] > 100 µM | [18] > 100 µM | [19] > 100 µM
